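Briefly, cells in 96-well plates were exposed to five compound concentrations for 48 h, and endpoints were estimated by linear interpolation. GI50: concentration for 50% inhibition of growth.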 Calls of active or inactive are those of the source. Cut-off read from the data, not from the text of the source: active = GI50 up to about 1.1 µM and inactive = higher.

Common to all, as to test: growth of human tumour cells (NCI), 48 h
Experiment [1] has as its system HCT-15.
Experiment [2] deals with SK-OV-3.
Experiment [3] has as its system Malme-3M.
Experiment [4] has as its system NCI-H460.
The test system of experiment [5] is SF-268.
The test system of experiment [6] is SF-295.
Experiment [7] concerns SK-MEL-28.
Experiment [8] deals with M14.
Experiment [9] concerns 786-0.
Experiment [10] deals with NCI-H23.
Experiment [11] has as its system MOLT-4.
Experiment [12] deals with MDA-MB-435.
Experiment [13] relates to U-251.
The test system of experiment [14] is CCRF-CEM.
The subject of experiment [15] is UACC-62.
In experiment [16] the test system is UO-31.
For experiment [17], the system named is SNB-19.
The test system of experiment [18] is HL-60.
Experiment [19] deals with SK-MEL-5.
Experiment [20] relates to TK-10.

On to `Oc1ccc(-c2nc3ccccc3s2)cc1`, for which the GI50 in experiment [1] was 36 µM; in experiment [2], 32.1 µM (inactive); in [3] it was 47.3 µM (inactive); in [4] it was 38.1 µM (inactive); in [5] it was 31.5 µM (inactive); in [6] it was 37.5 µM (inactive). The GI50 in experiment [7] is 53.3 µM (inactive); in [8], 44.2 µM (inactive); in experiment [9], 27.1 µM (inactive); in experiment [10], 25.2 µM (inactive); in experiment [11], 25.8 µM (inactive); in [12], 37.2 µM (inactive). Besides, the GI50 in experiment [13] was 42.4 µM (inactive); in experiment [14], 26.2 µM (inactive); in experiment [15], 32.4 µM (inactive); in experiment [16], 51.5 µM (inactive); in [17] it was 55.1 µM (inactive); in experiment [18] it was 30.3 µM (inactive).
For `O=c1c(Nc2ccccc2)cn(CCOc2ccccc2)c(=O)n1CCOc1ccccc1`, the GI50 was above 100 µM in experiment [1]; 79.6 µM (inactive) in experiment [3]; > 100 µM (inactive) in experiment [4]; 16.5 µM (inactive) in experiment [5]; 52.5 µM (inactive) in experiment [6]; > 100 µM (inactive) in experiment [7]. For the same compound, the GI50 was 70.5 µM (inactive) in [8]; 28.2 µM (inactive) in experiment [9]; 33.4 µM (inactive) in experiment [10]; > 100 µM (inactive) in [11]; > 100 µM (inactive) in experiment [12]; > 100 µM (inactive) in experiment [13]. The GI50 is > 100 µM (inactive) in experiment [14]; 47.9 µM (inactive) in [19]; 41.2 µM (inactive) in [15]; 44.4 µM (inactive) in [16]; 31.5 µM (inactive) in [17]; > 100 µM (inactive) in experiment [18].
For `C=C(C)C1CC/C(C)=C/CCC2(C)OC2CC/C(CO)=C\C1O` (configuration not stated), the GI50 in experiment [1] is above 100 µM; in [2], > 100 µM (inactive); in experiment [3], 52.1 µM (inactive); in experiment [4] it was 42.7 µM (inactive); in [5] it was 66.7 µM (inactive); in [6], 40.9 µM (inactive). Moreover, the GI50 was > 100 µM (inactive) in experiment [7]; 49.3 µM (inactive) in experiment [8]; > 100 µM (inactive) in experiment [9]; > 100 µM (inactive) in experiment [10]; 43 µM (inactive) in [11]; 60 µM (inactive) in experiment [12]. The GI50 in experiment [13] was 98.4 µM (inactive); in experiment [14], 19.1 µM (inactive); in experiment [20], > 100 µM (inactive); in experiment [15] it was 80 µM (inactive); in experiment [16], > 100 µM (inactive); in experiment [17], > 100 µM (inactive). The GI50 in experiment [18] is 59.2 µM (inactive).
Turning to `CC1(CF)SCc2nc3ccccc3n21` (configuration not stated), the GI50 was above 100 µM in experiment [1]; > 100 µM (inactive) in experiment [2]; > 100 µM (inactive) in experiment [3]; > 100 µM (inactive) in [4]; > 100 µM (inactive) in experiment [5]; > 100 µM (inactive) in experiment [6]. The GI50 in [7], in experiment [8], in [9], in experiment [10], in [12] and in experiment [13] was > 100 µM (inactive) in each case. Also, the GI50 in experiment [19] is > 100 µM (inactive); in [20], > 100 µM (inactive); in experiment [15], > 100 µM (inactive); in experiment [16], 81.1 µM (inactive); in experiment [17], > 100 µM (inactive); in experiment [18], > 100 µM (inactive).
Turning to `CC(C)(CO)CNc1nc(N)nc(Cl)c1C=O`, the GI50 in experiment [1] is 15.3 µM; in experiment [3] it was 39.7 µM (inactive); in experiment [4], 36.4 µM (inactive); in [5] it was 14 µM (inactive); in [6], 42.4 µM (inactive); in experiment [7], 24.4 µM (inactive). Besides, the GI50 is 79.3 µM (inactive) in [9]; 40.4 µM (inactive) in experiment [10]; 19.8 µM (inactive) in [11]; 25.9 µM (inactive) in [12]; 32.8 µM (inactive) in experiment [13]; 20.6 µM (inactive) in experiment [14]. Besides, the GI50 in experiment [19] was 30.7 µM (inactive); in experiment [20], 46.9 µM (inactive); in [15] it was 12.5 µM (inactive); in [16], 62.1 µM (inactive); in experiment [18] it was 3.9 µM (inactive).
Turning to `CC(=O)Nc1ccc(S(=O)(=O)Nc2nnc(S(N)(=O)=O)s2)cc1`, the GI50 was above 100 µM in experiment [1]; > 100 µM (inactive) in experiment [2]; > 100 µM (inactive) in experiment [3]; > 100 µM (inactive) in experiment [4]; > 100 µM (inactive) in experiment [5]; > 100 µM (inactive) in [6]. The GI50 in [8], in experiment [9], in [10], in experiment [11], in [12] and in experiment [13] was > 100 µM (inactive) in each case. In addition, the GI50 in experiment [20], in experiment [15], in [16], in experiment [17] and in [18] was > 100 µM (inactive) each time.
As to `CSC1=C(C(=O)Nc2ccc(C)cc2)C(N)=NC1=O`, the GI50 was above 100 µM in experiment [1]; > 100 µM (inactive) in experiment [2]; > 100 µM (inactive) in experiment [4]; > 100 µM (inactive) in experiment [5]; > 100 µM (inactive) in experiment [6]; > 100 µM (inactive) in experiment [7]. The GI50 in [8], in experiment [9], in experiment [10], in experiment [11], in experiment [12] and in [13] was > 100 µM (inactive) each time. For the same compound, the GI50 in experiment [14], in [19], in [20], in experiment [15], in experiment [16] and in [17] was > 100 µM (inactive) throughout. In addition, the GI50 in [18] was > 100 µM (inactive).
For `N#CC[N+]1(Cc2ccccn2)CCCC1.O=S(=O)([O-])c1ccccc1`, the GI50 in [1] was above 100 µM; in experiment [2], > 100 µM (inactive); in experiment [3] it was > 100 µM (inactive); in experiment [4] it was > 100 µM (inactive); in [5], > 100 µM (inactive); in experiment [6], > 100 µM (inactive). Also, the GI50 in [7] is > 100 µM (inactive); in experiment [8], > 100 µM (inactive); in [9], > 100 µM (inactive); in experiment [10], > 100 µM (inactive); in experiment [11] it was 7.01 µM (inactive); in [12], > 100 µM (inactive). For the same compound, the GI50 in [13], in experiment [19], in experiment [20], in experiment [15], in experiment [16] and in experiment [17] was > 100 µM (inactive) each time. In addition, in experiment [18], the GI50 was 70.6 µM (inactive).
Consider `COC1/C=C/C(C)C(C(C)C(OC)C(C)CCC(=O)C(C)C(CC(=O)O)OC)OC(=O)/C=C/C=C(\C)CC(OC)C(OC)C2=CC(=O)O[C@@H](C(C)C(OC)CC(OC)/C=C/C(C)C(O)C1)[C@H]2O` (some centres not stated), for which the GI50 was 0.0611 µM in [1]; 0.0879 µM (active) in experiment [2]; 0.0311 µM (active) in experiment [4]; 0.046 µM (active) in experiment [5]; 0.0968 µM (active) in [6]; 0.0212 µM (active) in experiment [7]. The GI50 in experiment [8] was 0.0286 µM (active); in experiment [9], 0.0223 µM (active); in [10], 0.164 µM (active); in experiment [11], 0.106 µM (active); in experiment [12], 0.0681 µM (active); in [13] it was 0.0416 µM (active). For the same compound, the GI50 in experiment [14] was 0.0484 µM (active); in experiment [19], 0.0536 µM (active); in experiment [20], 0.0703 µM (active); in [15], 0.0479 µM (active); in experiment [16], 0.0382 µM (active); in experiment [17], 0.217 µM (active). For the same compound, the GI50 in experiment [18] is 0.0237 µM (active).
In the case of `C1=N/CCNCCNCC/N=C/c2ccccc2OCc2cccc(n2)COc2ccccc2/1`, the GI50 in [1] is 45.1 µM; in experiment [2] it was > 100 µM (inactive); in [3], 61.8 µM (inactive); in experiment [4] it was 34.4 µM (inactive); in experiment [5], 47.2 µM (inactive); in experiment [6], 26.4 µM (inactive). The GI50 in experiment [7] was > 100 µM (inactive); in experiment [8], 28.7 µM (inactive); in [9], 64.6 µM (inactive); in experiment [10], 86.3 µM (inactive); in experiment [11], 27.4 µM (inactive); in experiment [12] it was 11.3 µM (inactive). For the same compound, the GI50 in [13] was 26.7 µM (inactive); in experiment [14] it was 16.2 µM (inactive); in [19], 39.1 µM (inactive); in [15] it was 79.1 µM (inactive); in [16], 72.8 µM (inactive); in experiment [17], 52.5 µM (inactive). Further, the GI50 in experiment [18] is 28 µM (inactive).
As for `Nc1ccc2nc3ccc(=O)cc-3n(-c3ccccc3)c2c1`, the GI50 in experiment [1] was above 100 µM; in experiment [2] it was > 100 µM (inactive); in experiment [3], > 100 µM (inactive); in [4], > 100 µM (inactive); in [5], 58.2 µM (inactive); in experiment [6], > 100 µM (inactive). Further, the GI50 in [7] is > 100 µM (inactive); in experiment [8], > 100 µM (inactive); in [9], 35.8 µM (inactive); in experiment [10] it was > 100 µM (inactive); in experiment [11] it was > 100 µM (inactive); in experiment [12], 66.7 µM (inactive). Also, the GI50 in experiment [13] was 86.3 µM (inactive); in [14] it was 62.8 µM (inactive); in experiment [19], > 100 µM (inactive); in experiment [15], > 100 µM (inactive); in experiment [16], 78.9 µM (inactive); in experiment [17], > 100 µM (inactive). For the same compound, the GI50 in experiment [18] was 59 µM (inactive).

The record behind these values is ChEMBL document CHEMBL1201862, “PubChem BioAssay data set” (2004).
